Results: patent US10604508B2, “2,3-dihydro-isoindole-1-one derivative as BTK kinase suppressant, and pharmaceutical composition including same” (CrystalGenomics, Inc., priority 2012, dated 2020)

Tests used:
Type in all cases: cell-based
RBL-2H3 cell line = test: Histamine Release Assay; conditions: Rattus norvegicus; RBL-2H3 cells, 500 ng/mL monoclonal anti-DNP, 24 hours
Method: Histamine release assays were performed with reference to the method disclosed in the article, FEBS Lett. 2002 Sep. 11; 527 (1-3):274-8. Silencing of Bruton's tyrosine kinase (Btk) using short interfering RNA duplexes (siRNA). Heinonen J E, Smith C I, Nore B F, and the amount of histamine was measured by an enzyme immunoassay.
The RBL-2H3 cell line, purchased from KCLB (Korean Cell Line Bank), was grown in a DMEM medium supplemented with 10% (v/v) FBS at 37° C. in a 5% CO2 incubator for 72 hours. The cells were transferred into 96-well plates at a density of 10,000 cells/well, and cultured at 37° C. in the 5% CO2 incubator for 24 hours.
The cells were treated with 500 ng/mL of monoclonal anti-DNP (sigma) and each of 0.001, 0.01, 0.1, 1.0 and 10 μM of the test compound in 100% (v/v) dimethyl sulfoxide (DMSO). The cells were treated only with 100% (v/v) DMSO, which was used as a control. The treated samples were cultured at 37° C. in the 5% CO2 incubator for 24 hours. Then, histamine release was measured according to manufacturer's instructions (EIA histamine kit, immunotech). Each well was treated with 50 μL of a histamine release buffer, and allowed to react for 30 minutes at 37° C. Upon completion of the reaction, 100 μL of a sample from each well was transferred to a new plate, and then was thoroughly mixed with 25 μL of an acetylation buffer and 25 μL of an acetylation reagent. 50 μL of the acetylation sample thus prepared was transferred to a plate coated with an antibody, mixed with 200 μL of histamine alkaline phosphatase conjugate, and then allowed to react for 18 hours at 4° C. Once the reaction is completed, the sample from the plate is removed, and then 200 μL of a wash buffer was added to wash three times. 200 μL of a substrate was added thereto, and the mixture was allowed to react at room temperature for 30 minutes. The reaction was terminated by adding 50 μL of a stop solution, and absorbance of the samples was read at 406 nm using Benchmark Plus (Biorad). The histamine release level was calculated based on absorbance of the test group against that of the control group. The EC50 (μM) values, in which test compounds reduce the histamine release by 50%, were determined by using Microsoft Excel graphic program.

Jeko-1 = test: MTS anti-proliferation assay, Jeko-1; conditions: human lymphoma cell line, 48 hours
Method: (§1) MTS assay was performed to evaluate the anti-proliferative activities of the inventive compounds via inhibition on extracellular signal-regulated kinase (Barltrop, J. A. et al., (1991) 5-(3-carboxymethoxyphenyl)-2-(4,5-dimethylthiazoly)-3-(4-sulfophenyl) tetrazolium, inner salt (MTS) and related analog of 3-(4,5-dimethylthiazolyl)-2,5,-diphenyltetrazolium bromide (MTT) reducing to purple water soluble formazans as cell-viability indicators. Bioorg. Med Chem. Lett. 1, 611-4; Cory, A. H. et al., (1991) Use of an aqueous soluble tertrazolium/formazan assay for cell growth assays in culture. Cancer Comm. 3, 207-12).
(§2) Human lymphoma cell lines Jeko-1 (ATCC), Mino (ATCC), H9 (Korean Cell Line Bank) and SR (ATCC), and human leukemia cell lines MV4-11 (ATCC), Molm-13 (DSMZ) and Ku812 (ATCC) were used for the test according to the procedure shown below.
(§3) Each of Jeko-1, Mino, H9, SR, MV4-11, Molm-13 and Ku812 cells were transferred into 96-well plates containing RPMI1640 medium (GIBCO, Invitrogen) supplemented with 10% FBS at a density of 10,000 cells/well, and then incubated for 24 hours under conditions of 37° C. and 5% CO2. The wells were treated with each of 0.2, 1, 5, 25 and 100 μM, of the test compounds. The well was treated with DMSO in an amount of 0.08 wt %, which is the same amount as in the test compounds, which was used as a control. The resulting cells were incubated for 48 hours.
(§4) MTS assays are commercially available and include the Promega CellTiter 96® Aqueous Non-Radioactive Cell Proliferation Assay. MTS assays were performed in order to evaluate cell viability of the test compounds. 20 μL of a mixed solution of 3-(4,5-dimethylthiazol-2-yl)-5-(3-carboxymethoxyphenyl)-2-(4-sulfophenyl)-2H-tetrazolium, inner salt (“MTS”) and phenazine methosulfate (PMS) was added to each well, and then incubated for 2 hours at 37° C. Then absorbance of the samples was read at 490 nm. The anti-proliferation activity level was calculated based on absorbance of the test compounds against that of the untreated control group. The EC50 (μM) values, in which test compounds reduce the growth of cancer cells by 50% were calculated.

H9 = test: MTS anti-proliferation assay, H9; conditions: human lymphoma cell line, 48 hours
Method: as §1, §2, §3, §4

SR = test: MTS anti-proliferation assay, SR; conditions: human lymphoma cell line, 48 hours
Method: as §1, §2, §3, §4

Mino = test: MTS anti-proliferation assay, Mino; conditions: human lymphoma cell line, 48 hours
Method: as §1
(§5) Human lymphoma cell lines Jeko-1 (ATCC), Mino (ATCC), H9 (Korean Cell Line Bank) and SR (ATCC), and human leukemia cell lines MV4-11 (ATCC), Molm-13 (DSMZ) and Ku812 (ATCC) were used for the test according to the procedure shown below. […]
(§6) MTS assays are commercially available and include the Promega CellTiter 96® Aqueous Non-Radioactive Cell Proliferation Assay. […] Then absorbance of the samples was read at 490 nm. The anti-proliferation activity level was calculated based on absorbance of the test compounds against that of the untreated control group. […]

MV4-11 = test: MTS anti-proliferation assay, MV4-11; conditions: human leukemia cell line, 48 hours
Method: as §1, §5, §6

Molm-13 = test: MTS anti-proliferation assay, Molm-13; conditions: human leukemia cell line, 48 hours
Method: as §1, §5, §6

Ku812 = test: MTS anti-proliferation assay, Ku812; conditions: human leukemia cell line, 48 hours
Method: as §1, §5, §6

Row | EC50 (RBL-2H3 cell line) | EC50 (MV4-11) | EC50 (Molm-13) | SMILES | EC50 (Jeko-1) | EC50 (H9) | EC50 (SR) | EC50 (Mino) | EC50 (Ku812)
1 | 0.45 µM |  |  | Cc1cnc(-c2ccc(-c3ccc(NC(=O)Nc4c(F)cccc4F)cc3F)c3c2C(=O)NC3)[nH]1 [Compound 3, 1-(2,6-difluoro-phenyl)-3-{3-fluoro-4-[7-(5-methyl-1H-imidazol-2-yl)-1-oxo-2,3-dihydro-1H-isoindol-4-yl]-phenyl}-urea] | 0.1 µM | 0.03 µM | 0.1 µM |  | 
2 | 0.25 µM |  |  | Cc1cnc(-c2ccc(-c3ccc(NC(=O)Nc4c(F)cccc4Cl)cc3F)c3c2C(=O)NC3)[nH]1 [Compound 4, 1-(2-chloro-6-fluoro-phenyl)-3-{3-fluoro-4-[7-(5-methyl-1H-imidazol-2-yl)-1-oxo-2,3-dihydro-1H-isoindol-4-yl]-phenyl}-urea] | 0.1 µM | 0.03 µM | 0.03 µM |  | 
3 | 0.22 µM | 0.002 µM | 0.003 µM | Cc1cnc(-c2ccc(-c3ccc(NC(=O)Nc4c(F)cc(F)cc4F)cc3F)c3c2C(=O)NC3)[nH]1 [Compound 7, 1-{3-fluoro-4-[7-(5-methyl-1H-imidazol-2-yl)-1-oxo-2,3-dihydro-1H-isoindol-4-yl]-phenyl}-3-(2,4,6-trifluoro-phenyl)-urea] | 0.03 µM | 0.007 µM | 0.015 µM | 0.018 µM | 0.6 µM
4 | 0.35 µM |  |  | Cc1cnc(-c2ccc(-c3ccc(NC(=O)Nc4c(F)c(F)c(F)c(F)c4F)cc3F)c3c2C(=O)NC3)[nH]1 [Compound 9, 1-{3-fluoro-4-[7-(5-methyl-1H-imidazol-2-yl)-1-oxo-2,3-dihydro-1H-isoindol-4-yl]-phenyl}-3-pentafluorophenyl-urea] | 0.03 µM | 0.006 µM | 0.018 µM |  | 
5 | 0.3 µM |  |  | Cc1cnc(-c2ccc(-c3ccc(NC(=O)Nc4c(F)ccc(F)c4F)cc3F)c3c2C(=O)NC3)[nH]1 [Compound 12, 1-{3-fluoro-4-[7-(5-methyl-1H-imidazol-2-yl)-1-oxo-2,3-dihydro-1H-isoindol-4-yl]-phenyl}-3-(2,3,6-trifluoro-phenyl)-urea] | 0.15 µM | 0.04 µM | 0.02 µM |  | 
6 | 0.2 µM |  |  | Cc1cnc(-c2ccc(-c3ccc(NC(=O)Nc4ccc(F)c(F)c4)cc3F)c3c2C(=O)NC3)[nH]1 [Compound 14, 1-(3,4-difluoro-phenyl)-3-{3-fluoro-4-[7-(5-methyl-1H-imidazol-2-yl)-1-oxo-2,3-dihydro-1H-isoindol-4-yl]-phenyl}-urea] | 0.03 µM | 0.02 µM | 0.018 µM |  | 
7 | 0.22 µM |  |  | Cc1cnc(-c2ccc(-c3ccc(NC(=O)Nc4ccc(C#N)c(F)c4)cc3F)c3c2C(=O)NC3)[nH]1 [Compound 15, 1-(4-cyano-3-fluorophenyl)-3-(3-fluoro-4-(7-(5-methyl-1H-imidazol-2-yl)-1-oxoisoindolin-4-yl)phenyl)urea] | 0.1 µM | 0.19 µM | 0.15 µM |  | 
8 | 0.04 µM | 0.004 µM | 0.012 µM | Cc1cnc(-c2ccc(-c3ccc(NC(=O)Nc4c(F)ccc(Cl)c4F)cc3F)c3c2C(=O)NC3)[nH]1 [Compound 17, 1-(3-chloro-2,6-difluorophenyl)-3-(3-fluoro-4-(7-(5-methyl-1H-imidazol-2-yl)-1-oxoisoindolin-4-yl)phenyl)urea] | 0.03 µM | 0.02 µM | 0.025 µM | 0.018 µM | 0.19 µM
9 | 0.3 µM |  |  | Cc1cnc(-c2ccc(-c3ccc(NC(=O)Nc4c(F)ccc(F)c4Cl)cc3F)c3c2C(=O)NC3)[nH]1 [Compound 18, 1-(2-chloro-3,6-difluorophenyl)-3-(3-fluoro-4-(7-(5-methyl-1H-imidazol-2-yl)-1-oxoisoindolin-4-yl)phenyl)urea] | 0.03 µM | 0.02 µM | 0.02 µM |  | 
10 | 0.3 µM |  |  | Cc1cnc(-c2ccc(-c3ccc(NC(=O)Nc4c(F)cc(Cl)cc4F)cc3F)c3c2C(=O)NC3)[nH]1 [Compound 19, 1-(4-chloro-2,6-difluoro-phenyl)-3-{3-fluoro-4-[7-(5-methyl-1H-imidazol-2-yl)-1-oxo-2,3-dihydro-1H-isoindol-4-yl]-phenyl}-urea] | 0.03 µM | 0.04 µM | 0.02 µM |  | 
11 | 0.3 µM |  |  | Cc1cnc(-c2ccc(-c3ccc(NC(=O)Nc4c(F)c(F)cc(F)c4F)cc3F)c3c2C(=O)NC3)[nH]1 [Compound 20, 1-{3-fluoro-4-[7-(5-methyl-1H-imidazol-2-yl)-1-oxo-2,3-dihydro-1H-isoindol-4-yl]-phenyl}-3-(2,3,5,6-tetrafluoro-phenyl)-urea] | 0.03 µM | 0.01 µM | 0.017 µM |  | 
